Patent US10501461B2, “Tyrosine amide derivatives as Rho-kinase inhibitors” (CHIESI FARMACEUTICI S.P.A., priority 2017, dated 2019)

Legend:
Rho kinase 1 (ROCK-I) = Rho kinase 1 (ROCK-I) (Homo sapiens, UniProt Q13464); experiment: In vitro Rho kinase inhibitory activity assay (ADP-Glo), Rho kinase 1; type: biochemical; conditions: 10 μM ATP, 25° C., expressed as range of activity
Method: (§1) The effectiveness of compounds of the present invention to inhibit Rho kinase activity can be determined in a 10 μl assay containing 40 mM Tris pH7.5, 20 mM MgCl2 0.1 mg/ml BSA, 50 μM DTT and 2.5 μM peptide substrate (Myelin Basic Protein) using an ADP-Glo kit (Promega). Compounds were dissolved in DMSO such that the final concentration of DMSO was 1% in the assay. All reactions/incubations are performed at 25° C. Compound (2 ul) and either Rho kinase 1 or 2 (4 μl) were mixed and incubated for 30 mins. Reactions were initiated by addition of ATP (4 μl) such that the final concentration of ATP in the assay was 10 μM. After a 1 hour incubation 10 μl of ADP-Glo Reagent was added and after a further 45 minute incubation 20 ul of Kinase Detection Buffer was added and the mixture incubated for a further 30 minutes. The luminescent signal was measured on a luminometer. […] Compounds were tested in dose-response format and the inhibition of kinase activity was calculated at each concentration of compound. To determine the IC50 (concentration of compound required to inhibit 50% of the enzyme activity) data were fit to a plot of % inhibition vs Log10 compound concentration using a sigmoidal fit with a variable slope and fixing the maximum to 100% and the minimum to 0%. To determine the Ki values the Cheng-Prusoff equation was utilized (Ki=IC50/(1+[S]/Km).

Rho kinase 2 (ROCK-II) = Rho kinase 2 (ROCK-II) (Homo sapiens, UniProt O75116); experiment: In vitro Rho kinase inhibitory activity assay (ADP-Glo), Rho kinase 2; type: biochemical; conditions: 10 μM ATP, 25° C., expressed as range of activity
Method: as §1

Rho kinase 2 (ROCK-II), sequence (O75116 whole entry): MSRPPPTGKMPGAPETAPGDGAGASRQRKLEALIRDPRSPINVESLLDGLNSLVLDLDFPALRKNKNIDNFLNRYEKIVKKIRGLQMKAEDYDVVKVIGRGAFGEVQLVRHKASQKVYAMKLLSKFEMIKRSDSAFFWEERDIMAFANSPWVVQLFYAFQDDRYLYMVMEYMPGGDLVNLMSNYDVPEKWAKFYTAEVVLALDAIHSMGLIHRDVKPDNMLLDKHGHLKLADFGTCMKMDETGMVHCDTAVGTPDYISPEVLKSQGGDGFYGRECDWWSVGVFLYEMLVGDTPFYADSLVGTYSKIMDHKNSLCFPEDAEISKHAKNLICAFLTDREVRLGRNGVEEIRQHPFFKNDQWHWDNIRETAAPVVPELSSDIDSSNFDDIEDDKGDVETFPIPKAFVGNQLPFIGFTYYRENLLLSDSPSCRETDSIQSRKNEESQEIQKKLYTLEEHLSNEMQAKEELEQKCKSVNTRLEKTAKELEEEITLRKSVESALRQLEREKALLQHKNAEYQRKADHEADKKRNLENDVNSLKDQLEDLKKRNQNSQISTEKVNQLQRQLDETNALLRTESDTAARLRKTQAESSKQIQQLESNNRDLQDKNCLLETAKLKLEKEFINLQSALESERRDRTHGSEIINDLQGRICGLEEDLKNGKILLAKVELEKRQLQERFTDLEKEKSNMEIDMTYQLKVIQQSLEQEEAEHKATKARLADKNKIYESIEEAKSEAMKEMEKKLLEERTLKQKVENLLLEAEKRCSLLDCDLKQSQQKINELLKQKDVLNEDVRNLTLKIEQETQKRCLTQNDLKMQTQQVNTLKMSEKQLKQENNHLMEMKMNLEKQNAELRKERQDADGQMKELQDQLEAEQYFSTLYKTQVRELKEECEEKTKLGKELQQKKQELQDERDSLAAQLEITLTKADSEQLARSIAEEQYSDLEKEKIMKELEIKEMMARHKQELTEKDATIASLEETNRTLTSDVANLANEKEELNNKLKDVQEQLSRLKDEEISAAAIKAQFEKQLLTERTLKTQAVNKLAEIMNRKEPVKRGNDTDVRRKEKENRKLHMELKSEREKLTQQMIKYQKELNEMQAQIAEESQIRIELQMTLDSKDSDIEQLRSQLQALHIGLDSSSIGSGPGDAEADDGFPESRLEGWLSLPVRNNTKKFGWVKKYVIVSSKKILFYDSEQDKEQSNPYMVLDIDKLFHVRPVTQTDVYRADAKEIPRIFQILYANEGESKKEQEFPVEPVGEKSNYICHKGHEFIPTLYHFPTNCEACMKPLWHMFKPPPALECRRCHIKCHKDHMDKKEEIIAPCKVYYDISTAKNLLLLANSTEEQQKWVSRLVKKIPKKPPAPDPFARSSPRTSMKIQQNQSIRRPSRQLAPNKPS
Rho kinase 1 (ROCK-I), sequence (Q13464 whole entry): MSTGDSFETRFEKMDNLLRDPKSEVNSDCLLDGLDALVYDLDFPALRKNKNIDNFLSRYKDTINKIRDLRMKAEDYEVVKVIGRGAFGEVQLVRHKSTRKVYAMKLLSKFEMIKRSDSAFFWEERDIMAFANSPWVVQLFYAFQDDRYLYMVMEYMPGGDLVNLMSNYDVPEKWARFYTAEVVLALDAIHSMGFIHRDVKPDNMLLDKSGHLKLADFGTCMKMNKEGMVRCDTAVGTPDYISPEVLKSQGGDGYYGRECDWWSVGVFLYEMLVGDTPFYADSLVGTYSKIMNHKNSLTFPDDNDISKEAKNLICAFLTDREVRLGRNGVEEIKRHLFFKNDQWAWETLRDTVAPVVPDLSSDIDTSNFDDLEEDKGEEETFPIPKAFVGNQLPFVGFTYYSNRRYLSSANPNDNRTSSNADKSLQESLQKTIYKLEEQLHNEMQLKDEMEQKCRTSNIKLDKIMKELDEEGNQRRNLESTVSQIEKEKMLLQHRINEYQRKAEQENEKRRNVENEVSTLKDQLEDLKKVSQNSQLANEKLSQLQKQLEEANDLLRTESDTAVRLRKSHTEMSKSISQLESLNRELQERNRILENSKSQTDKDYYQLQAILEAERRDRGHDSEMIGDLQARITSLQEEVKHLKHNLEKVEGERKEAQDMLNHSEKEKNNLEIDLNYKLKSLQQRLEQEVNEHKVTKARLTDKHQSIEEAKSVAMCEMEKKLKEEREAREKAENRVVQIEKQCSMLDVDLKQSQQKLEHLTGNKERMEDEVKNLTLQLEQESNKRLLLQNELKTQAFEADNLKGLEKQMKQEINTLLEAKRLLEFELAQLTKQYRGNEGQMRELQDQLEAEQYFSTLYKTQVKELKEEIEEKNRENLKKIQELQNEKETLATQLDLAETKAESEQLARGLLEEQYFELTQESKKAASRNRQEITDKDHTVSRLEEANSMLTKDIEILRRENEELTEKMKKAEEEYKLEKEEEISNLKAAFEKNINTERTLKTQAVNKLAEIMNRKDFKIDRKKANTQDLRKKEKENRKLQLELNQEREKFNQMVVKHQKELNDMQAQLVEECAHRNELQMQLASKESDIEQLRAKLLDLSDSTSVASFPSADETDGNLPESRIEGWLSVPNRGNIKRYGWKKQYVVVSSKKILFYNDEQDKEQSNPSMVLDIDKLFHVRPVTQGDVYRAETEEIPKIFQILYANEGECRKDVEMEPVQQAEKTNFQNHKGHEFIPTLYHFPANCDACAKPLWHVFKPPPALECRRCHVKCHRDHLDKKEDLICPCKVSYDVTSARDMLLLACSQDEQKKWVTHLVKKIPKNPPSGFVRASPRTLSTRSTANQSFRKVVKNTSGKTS

Row | Compound | Ki (Rho kinase 1 (ROCK-I)) | Ki (Rho kinase 2 (ROCK-II))
1 | Cc1c[nH]c2ncnc(Oc3ccc(C[C@H](N)C(=O)NCCCN(C)C)cc3F)c12 [Example 116, (S)-2-amino-N-(3-(dimethylamino)propyl)-3-(3-fluoro-4-((5-methyl-7H-pyrrolo[2,3-d]pyrimidin-4-yl)oxy)phenyl)propanamide] | 3 to 30 nM | 3 to 30 nM
2 | Cc1c[nH]c2nccc(Oc3ccc(C[C@H](N)C(=O)N4CC[C@@H](N(C)C)C4)cc3F)c12 [Example 43, (S)-2-amino-1-((R)-3-(dimethylamino)pyrrolidin-1-yl)-3-(3-fluoro-4-((3-methyl-1H-pyrrolo[2,3-b]pyridin-4-yl)oxy)phenyl)propan-1-one] | < 3 nM | < 3 nM
3 | Cc1c[nH]c2nccc(Oc3ccc(C[C@H](N)C(=O)N4CCc5ncncc5C4)cc3F)c12 [Example 2, (S)-2-amino-1-(7,8-dihydropyrido[4,3-d]pyrimidin-6(5H)-yl)-3-(3-fluoro-4-((3-methyl-1H-pyrrolo[2,3-b]pyridin-4-yl)oxy)phenyl)propan-1-one] | < 3 nM | < 3 nM
4 | Cc1c[nH]c2nccc(Oc3ccc(C[C@H](N)C(=O)NCCCN(C)C)cc3F)c12 [Example 15, (S)-2-amino-N-(3-(dimethylamino)propyl)-3-(3-fluoro-4-((3-methyl-1H-pyrrolo[2,3-b]pyridin-4-yl)oxy)phenyl)propanamide] | < 3 nM | < 3 nM
5 | CN1C[C@@H]2C[C@H]1CN2C(=O)[C@@H](N)Cc1ccc(Oc2ccnc3[nH]cc(CO)c23)c(F)c1 [Example 211, (S)-2-amino-3-(3-fluoro-4-((3-(hydroxymethyl)-1H-pyrrolo[2,3-b]pyridin-4-yl)oxy)phenyl)-1-((1S,4S)-5-methyl-2,5-diazabicyclo[2.2.1]-heptan-2-yl)propan-1-one] | 3 to 30 nM | 3 to 30 nM
6 | CSc1nccc(CN2CCN(C(=O)[C@@H](N)Cc3ccc(Oc4ccnc5[nH]cc(C)c45)c(F)c3)CC2)n1 [Example 154, (S)-2-amino-3-(3-fluoro-4-((3-methyl-1H-pyrrolo[2,3-b]pyridin-4-yl)oxy)phenyl)-1-(4-((2-(methylthio)pyrimidin-4-yl)methyl)piperazin-1-yl)propan-1-one] | < 3 nM | < 3 nM
7 | CN(C)C(Cc1ccc(Oc2ccnc3[nH]ccc23)cc1)C(=O)NC1CCCCC1 (stereo not drawn) [Example 183, 3-(4-((1H-pyrrolo[2,3-b]pyridin-4-yl)oxy)phenyl)-N-cyclohexyl-2-(dimethylamino)propanamide] | > 30 nM | 3 to 30 nM
8 | Cc1c[nH]c2nccc(Oc3ccc(C[C@H](N)C(=O)N4CC[C@H](N(C)C)C4)cc3F)c12 [Example 49, (S)-2-amino-1-((S)-3-(dimethylamino)pyrrolidin-1-yl)-3-(3-fluoro-4-((3-methyl-1H-pyrrolo[2,3-b]pyridin-4-yl)oxy)phenyl)propan-1-one] | < 3 nM | < 3 nM
9 | Cc1c[nH]c2nccc(Oc3ccc(C[C@@H](N)C(=O)NCc4ccccc4)cc3)c12 [Example 136, (R)-2-amino-N-benzyl-3-(4-((3-methyl-1H-pyrrolo[2,3-b]pyridin-4-yl)oxy)phenyl)propanamide] | 3 to 30 nM | 3 to 30 nM
10 | Cc1c[nH]c2ncnc(Oc3ccc(C[C@H](N)C(=O)N4CCC(O)(Cc5ccccc5)CC4)cc3F)c12 [Example 123, (S)-2-amino-1-(4-benzyl-4-hydroxypiperidin-1-yl)-3-(3-fluoro-4-((5-methyl-7H-pyrrolo[2,3-d]pyrimidin-4-yl)oxy)phenyl)propan-1-one] | < 3 nM | < 3 nM
11 | N[C@@H](Cc1ccc(Oc2ccnc3[nH]cc(F)c23)cc1)C(=O)N1CCN(Cc2ccccc2)CC1 [Example 114, (S)-2-amino-1-(4-benzylpiperazin-1-yl)-3-(4-((3-fluoro-1H-pyrrolo[2,3-b]pyridin-4-yl)oxy)phenyl)propan-1-one] | < 3 nM | < 3 nM
12 | Cc1c[nH]c2nccc(Oc3ccc(C[C@H](N)C(=O)N4CCN(C(=O)c5nccs5)CC4)cc3F)c12 [Example 177, (S)-2-amino-3-(3-fluoro-4-((3-methyl-1H-pyrrolo[2,3-b]pyridin-4-yl)oxy)phenyl)-1-(4-(thiazole-2-carbonyl)piperazin-1-yl)propan-1-one] | < 3 nM | < 3 nM
13 | CN(CC1CCCCC1)C(=O)[C@H](N)Cc1ccc(Oc2ccnc3[nH]ccc23)cc1 [Example 143, (R)-3-(4-((1H-pyrrolo[2,3-b]pyridin-4-yl)oxy)phenyl)-2-amino-N-(cyclohexylmethyl)-N-methylpropanamide] | > 30 nM | > 30 nM
14 | Cc1c[nH]c2nccc(Oc3ccc(C[C@H](N)C(=O)N4CCN(Cc5csnn5)CC4)cc3F)c12 [Example 164, (S)-1-(4-((1,2,3-thiadiazol-4-yl)methyl)piperazin-1-yl)-2-amino-3-(3-fluoro-4-((3-methyl-1H-pyrrolo[2,3-b]pyridin-4-yl)oxy)phenyl)propan-1-one] | < 3 nM | < 3 nM
15 | Cc1c[nH]c2nccc(Oc3ccc(C[C@H](N)C(=O)NC4(CO)CCCCC4)cc3F)c12 [Example 32, (S)-2-amino-3-(3-fluoro-4-((3-methyl-1H-pyrrolo[2,3-b]pyridin-4-yl)oxy)phenyl)-N-(1-(hydroxymethyl)cyclohexyl)propanamide] | < 3 nM | < 3 nM
16 | Cc1c[nH]c2nccc(Oc3ccc(C[C@H](N)C(=O)Nc4ccccc4)cc3)c12 [Example 137, (S)-2-amino-3-(4-((3-methyl-1H-pyrrolo[2,3-b]pyridin-4-yl)oxy)phenyl)-N-phenylpropanamide] | < 3 nM | < 3 nM
17 | CN(Cc1ccccc1)C(=O)[C@@H](N)Cc1ccc(Oc2ccnc3[nH]ccc23)cc1 [Example 93, (S)-3-(4-((1H-pyrrolo[2,3-b]pyridin-4-yl)oxy)phenyl)-2-amino-N-benzyl-N-methylpropanamide] | 3 to 30 nM | 3 to 30 nM
18 | Cc1c[nH]c2nccc(Oc3ccc(C[C@H](N)C(=O)N4CCN(C(=O)C5CCCCC5)CC4)cc3F)c12 [Example 168, (S)-2-amino-1-(4-(cyclohexanecarbonyl)piperazin-1-yl)-3-(3-fluoro-4-((3-methyl-1H-pyrrolo[2,3-b]pyridin-4-yl)oxy)phenyl)propan-1-one] | < 3 nM | < 3 nM
19 | N[C@@H](Cc1ccc(Oc2ccnc3[nH]ccc23)cc1)C(=O)NC1CCCCC1 [Example 111, (S)-3-(4-((1H-pyrrolo[2,3-b]pyridin-4-yl)oxy)phenyl)-2-amino-N-cyclohexylpropanamide] | 3 to 30 nM | < 3 nM
20 | CC(=O)N1CCN(C(=O)C(N)Cc2ccc(Oc3ccnc4[nH]cc(C)c34)c(F)c2)CC1 (stereo not drawn) [Example 133, 1-(4-acetylpiperazin-1-yl)-2-amino-3-(3-fluoro-4-((3-methyl-1H-pyrrolo[2,3-b]pyridin-4-yl)oxy)phenyl)propan-1-one] | < 3 nM | < 3 nM
21 | Cc1c[nH]c2nccc(Oc3ccc(CC(N)C(=O)NC4CCN(Cc5ccccc5)CC4)cc3F)c12 (stereo not drawn) [Example 83, 2-amino-N-(1-benzylpiperidin-4-yl)-3-(3-fluoro-4-((3-methyl-1H-pyrrolo[2,3-b]pyridin-4-yl)oxy)phenyl)propanamide] | < 3 nM | < 3 nM
22 | N[C@@H](Cc1ccc(Oc2ccnc3[nH]cc(-c4cncs4)c23)cc1)C(=O)N1CCN(Cc2ccccc2)CC1 [Example 196, (S)-2-amino-1-(4-benzylpiperazin-1-yl)-3-(4-((3-(thiazol-5-yl)-1H-pyrrolo[2,3-b]pyridin-4-yl)oxy)phenyl)propan-1-one] | < 3 nM | < 3 nM
23 | Cc1c[nH]c2nccc(Oc3ccc(CC(N)C(=O)Nc4cccc5cnccc45)cc3F)c12 (stereo not drawn) [Example 78, 2-amino-3-(3-fluoro-4-((3-methyl-1H-pyrrolo[2,3-b]pyridin-4-yl)oxy)phenyl)-N-(isoquinolin-5-yl)propanamide] | < 3 nM | < 3 nM
24 | Cc1c[nH]c2nccc(Oc3ccc(CC(N)C(=O)N4Cc5ccncc5C4)cc3F)c12 (stereo not drawn) [Example 65, 2-amino-3-(3-fluoro-4-((3-methyl-1H-pyrrolo[2,3-b]pyridin-4-yl)oxy)phenyl)-1-(1H-pyrrolo[3,4-c]pyridin-2(3H)-yl)propan-1-one] | < 3 nM | < 3 nM
25 | CN(CC1CCCCC1)C(=O)[C@@H](N)Cc1ccc(Oc2ccnc3[nH]ccc23)cc1 [Example 92, (S)-3-(4-((1H-pyrrolo[2,3-b]pyridin-4-yl)oxy)phenyl)-2-amino-N-(cyclohexylmethyl)-N-methylpropanamide] | 3 to 30 nM | 3 to 30 nM
26 | Cc1c[nH]c2nccc(Oc3ccc(C[C@H](N)C(=O)NC4CN(C)C4)cc3F)c12 [Example 42, (S)-2-amino-3-(3-fluoro-4-((3-methyl-1H-pyrrolo[2,3-b]pyridin-4-yl)oxy)phenyl)-N-(1-methylazetidin-3-yl)propanamide] | < 3 nM | < 3 nM
27 | Cc1c[nH]c2nccc(Oc3ccc(C[C@H](N)C(=O)N4CCN(C)C(C)(C)C4)cc3F)c12 [Example 18, (S)-2-amino-3-(3-fluoro-4-((3-methyl-1H-pyrrolo[2,3-b]pyridin-4-yl)oxy)phenyl)-1-(3,3,4-trimethylpiperazin-1-yl)propan-1-one] | < 3 nM | < 3 nM
